Experimental data reported in patent publication EP2119770B1, “Production of alpha-oxyfunctionalized carbonyl compounds” (priority 2008, dated 2009).

How the values were obtained:
Format in all cases: biochemical
[1] = target: T1, Gox1615 (Gluconobacter oxydans, UniProt Q5FQJ0); test: Enzyme activity assay (rate of NAD(P)H decrease at 340 nm), Gox1615; settings: Tab. 5, Gox1615; cofactor NADPH; 10 mM substrate, pH 7.0, 30 °C
T1 sequence (Q5FQJ0 1-332): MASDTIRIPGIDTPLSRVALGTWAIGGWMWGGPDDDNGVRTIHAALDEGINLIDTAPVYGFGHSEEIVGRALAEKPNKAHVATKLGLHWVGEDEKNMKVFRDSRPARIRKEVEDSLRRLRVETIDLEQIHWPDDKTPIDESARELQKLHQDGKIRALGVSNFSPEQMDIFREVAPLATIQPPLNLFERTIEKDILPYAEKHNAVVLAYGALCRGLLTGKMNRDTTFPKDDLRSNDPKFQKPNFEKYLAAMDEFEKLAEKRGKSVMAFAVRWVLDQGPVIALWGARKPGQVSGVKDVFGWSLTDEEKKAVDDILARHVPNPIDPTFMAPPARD
Experimental: (§1) Measurment of enzyme activity: NADPH-dependent alpha-ketocarbonyl reductases were assayed by a routine method used for NAD(P)-linked enzymes by recording the rate of decrease of NADPH at 340 nm (ε = 6.22 mM^-1 x cm^-1)) with substrates at 30 °C. The reaction mixture (1 ml) for reduction of alpha-ketocarbonyl substrates contained 10 mM substrate, 40 mM potassium phosphate buffer pH 7.0, 0.025 mM NAD(P)H , and the enzyme. Reactions were induced by addition of enzyme or substrate. One unit of enzyme activity was defined as the amount of enzyme catalyzing the conversion of 1 µmol of pyridine nucleotide per min at 30 °C.
(§2) NADPH-dependent α-ketocarbonyl reductases were assayed by a routine method used for NAD(P)-linked enzymes by recording the rate of decrease of NADPH at 340 nm (ε = 6.22 mM^-1.cm^-1) with substrates at 30 °C. The reaction mixture (1 ml) for reduction of alpha-ketocarbonyl substrates contained 10 mM substrate, 40 mM potassium phosphate buffer pH 7.0, 0.025 mM NADPH , and the enzyme. Reactions were induced by addition of enzyme or substrate. One unit of enzyme activity was defined as the amount of enzyme catalyzing the conversion of 1 µmol of pyridine nucleotide per min at 30 °C.
(§3) For each enzyme (Gox0313, Gox0502, Gox0644, Gox0646, Gox1615, Gox2107, and Gox2684 respectively), fresh enzyme preparations were used to validate the substrate spectrum and the kinetic activity. […] Purified NAD(P)-dependent oxidoreductases were assayed at 30 °C by a routine method used for NAD(P)-linked enzymes by recording the rate of decrease of NAD(P)H at 340 nm (ε = […]) with substrates capable of reduction reactions. The standard reaction mixture (1 ml) for the reduction reactions of substrates contained 10 mM substrate, 40 mM potassium phosphate buffer (K-phosphate buffer) pH 7.0, 0.05 mM NAD(P)H, and the enzyme unless otherwise noted. Reactions were induced by addition of enzyme or substrate. One unit of enzyme activity was defined as the amount of enzyme catalyzing the conversion of 1 µmol of pyridine nucleotide per min at 30 °C. Measurement of the protein content was performed by the method of Bradford in Anal. Biochem. 72:248-254 (1976). Table 3: Summary of enzymatic activities with α-diketones, α-ketoaldehydes and /or α-ketoesters

[2] = target: T2, Gox0313 (Gluconobacter oxydans, UniProt Q5FU50); test: Enzyme activity assay (rate of NAD(P)H decrease at 340 nm), Gox0313; settings: Tab. 6, Gox0313; substrate reduction, cofactor NADH; 10 mM substrate, pH 7.0, 30 °C
T2 sequence (Q5FU50 1-343): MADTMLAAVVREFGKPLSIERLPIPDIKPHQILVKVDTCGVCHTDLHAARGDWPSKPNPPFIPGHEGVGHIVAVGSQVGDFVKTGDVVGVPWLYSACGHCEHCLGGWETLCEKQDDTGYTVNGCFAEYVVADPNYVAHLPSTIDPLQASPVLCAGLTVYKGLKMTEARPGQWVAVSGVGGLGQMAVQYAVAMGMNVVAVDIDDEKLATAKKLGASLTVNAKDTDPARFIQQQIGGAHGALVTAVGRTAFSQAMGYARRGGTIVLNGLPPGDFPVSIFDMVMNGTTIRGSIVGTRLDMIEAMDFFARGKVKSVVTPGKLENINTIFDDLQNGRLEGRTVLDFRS
Experimental: as §1, §2, §3

[3] = target: T3, Gox0502 (Gluconobacter oxydans, UniProt Q5FTL6); test: Enzyme activity assay (rate of NAD(P)H decrease at 340 nm), Gox0502; design: Strep-tag II (N); made in house; host or cells: E. coli BL21 or E. coli DH5α (pASK-IBA5); settings: Tab. 7, Gox0502; cofactor NADPH; 10 mM substrate, pH 7.0, 30 °C
T3 sequence (Q5FTL6 1-361): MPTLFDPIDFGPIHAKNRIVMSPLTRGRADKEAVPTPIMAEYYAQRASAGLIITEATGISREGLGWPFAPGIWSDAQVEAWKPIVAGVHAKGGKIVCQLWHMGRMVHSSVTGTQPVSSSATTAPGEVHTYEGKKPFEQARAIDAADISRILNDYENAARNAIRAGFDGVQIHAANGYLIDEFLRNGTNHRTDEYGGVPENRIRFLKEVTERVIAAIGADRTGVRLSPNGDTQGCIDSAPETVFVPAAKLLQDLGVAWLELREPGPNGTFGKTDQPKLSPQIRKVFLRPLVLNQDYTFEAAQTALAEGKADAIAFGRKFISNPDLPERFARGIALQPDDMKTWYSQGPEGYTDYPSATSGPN
Experimental: as §1, §2, §3

[4] = target: T4, Gox2684 (Gluconobacter oxydans, UniProt Q5HXK5); test: Enzyme activity assay (rate of NAD(P)H decrease at 340 nm), Gox2684; settings: Tab. 8, GOX2684; cofactor NADPH; 10 mM substrate, pH 7.0, 30 °C
T4 sequence (Q5HXK5 1-357): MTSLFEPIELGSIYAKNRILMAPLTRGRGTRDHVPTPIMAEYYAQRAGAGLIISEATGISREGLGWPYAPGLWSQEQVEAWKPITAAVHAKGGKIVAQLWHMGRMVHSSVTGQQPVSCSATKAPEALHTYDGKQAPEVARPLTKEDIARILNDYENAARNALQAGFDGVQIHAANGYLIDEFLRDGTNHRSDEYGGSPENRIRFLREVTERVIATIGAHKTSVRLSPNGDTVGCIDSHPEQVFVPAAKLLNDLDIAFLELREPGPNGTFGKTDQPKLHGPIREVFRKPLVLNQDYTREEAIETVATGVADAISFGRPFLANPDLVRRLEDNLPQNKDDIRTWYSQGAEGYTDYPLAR
Experimental: as §1, §2, §3

[5] = target: Gox2107 (Gluconobacter oxydans, UniProt Q5FP53); test: Enzyme activity assay (rate of NAD(P)H decrease at 340 nm), Gox2107; settings: for Specific Activity: Tab. 7, Gox2107, cofactor NADPH, 10 mM substrate, pH 7.0, 30 °C
Experimental: as §1, §2, §3

[6] = target: Gox0644 (Gluconobacter oxydans, UniProt Q5FT75); test: Enzyme activity assay (rate of NAD(P)H decrease at 340 nm), Gox0644
Experimental: (§4) Reactions were induced by addition of enzyme or substrate. One unit of enzyme activity was defined as the amount of enzyme catalyzing the conversion of 1 µmol of pyridine nucleotide per min at 30 °C.
as §4
For each enzyme (Gox0313, Gox0502, Gox0644, Gox0646, Gox1615, Gox2107, and Gox2684 respectively), fresh enzyme preparations were used to validate the substrate spectrum and the kinetic activity. […] Reactions were induced by addition of enzyme or substrate. One unit of enzyme activity was defined as the amount of enzyme catalyzing the conversion of 1 µmol of pyridine nucleotide per min at 30 °C. […] Table 3: Summary of enzymatic activities with α-diketones, α-ketoaldehydes and /or α-ketoesters

| SMILES | Specific Activity [1] [U/mg] | Specific Activity [2] [U/mg] | also measured |
| --- | --- | --- | --- |
| O=CC(O)CO (racemic) [DL-glyceraldehyde] | 19 | 1.2 | – |
| CC=CC(C)=O [3-penten-2-one] | 0.5 | 1.5 | Specific Activity [3]: 3.6 U/mg; Specific Activities [4]: 1.9 U/mg; Specific Activity [5]: 1.9 U/mg |
| O=CC=Cc1ccccc1 [cinnamaldehyde] | – | 7.0 | Specific Activities [4]: 0.4 U/mg |
| CCCCCCCCC=O [Nonal] | 9.3 | 4.4 | – |
| Cc1ccc(C=O)cc1 [p-toluylaldehyde] | 2.3 | 3.3 | – |
| C=CC(=O)CC [1-pentene-3-one] | – | – | Specific Activity [3]: 6.1 U/mg; Specific Activity [5]: 14.0 U/mg |
| O=C1C=CCCC1 [2-cyclohexene-1-one] | – | – | Specific Activity [3]: 9.8 U/mg; Specific Activity [5]: 3.3 U/mg |
| C=C(C)[C@H]1CC=C(C)C(=O)C1 [(+)-Carvone] | – | – | Specific Activity [3]: 8.0 U/mg; Specific Activity [5]: < 0.1 U/mg |
| CCCCCCCCCCC=O [undecylaldehyde] | 7.5 | 8.5 | – |
| CCC=O [propionaldehyde] | 8.4 | 15.0 | – |
| CCCCCCCC=O [octanal] | 5.3 | 1.5 | – |
| NC(=O)C1=CN([C@@H]2O[C@H](COP(=O)(O)OP(=O)(O)OC[C@H]3O[C@@H](n4cnc5c(N)ncnc54)[C@H](O)[C@@H]3O)[C@@H](O)[C@H]2O)C=CC1 [NADH] | – | – | decrease in activity with NADH ([5]; Gox2107, NADH compared with the preferred NADPH (data not shown)): 7.5 fold |
| CCCC=O [butyraldehyde] | 14 | 8.5 | – |
| CC(=O)CC(C)=O [acetylacetone] | – | – | reduction by Gox0644 (result in words) ([6]; Gox0644, NADPH): not reduced |
| O=CCCc1ccccc1 [hydrocinnamaldehyde] | – | 32.1 | Specific Activities [4]: 1.9 U/mg |
| CC1=CC(=O)c2ccccc2C1=O [2-methyl-1,4-naphthoquinone] | – | – | Specific Activity [3]: 10 U/mg; Specific Activities [4]: 6.8 U/mg; Specific Activity [5]: 124.1 U/mg |
| CCCCCC=O [hexanal] | 10.3 | 6.0 | – |
| O=C(C(=O)c1ccccc1)c1ccccc1 [benzil] | – | 0.1 | Specific Activity ([6]; Tab. 4, Gox0644, cofactor NADPH, 10 mM substrate, pH 7.0, 30 °C): 14.0 U/mg |
| CCCCC=O [valeraldehyde] | 15.1 | 8.9 | – |
| CCCC(C)C=O (centres unmarked) [2-methylvaleraldehyde] | 13.4 | – | – |
